Drawing on patent US6514981B1, “Methods of modulating tyrosine protein kinase function with indolinone compounds” (Sugen, Inc., priority 1998, dated 2003), this text covers IC50 for one compound.

Format in all cases: cell-based
Test [1] has as its target T1, Insulin Receptor (Homo sapiens, UniProt P06213).
T1 construct: expressed in transfected cells; host or cells: H25 cells (NIH3T3, ATCC No. 1658)
The test can be described thus: Insulin receptor phosphorylation assay in H25 cells (ELISA). Conditions: insulin stimulation. How it is done:
The following materials and reagents were used to measure phophotyrosine levels on the insulin receptor (indicating insulin receptor tyrosine kinase activity):
1. The preferred cell line was an NIH3T3 cell line (ATCC No. 1658) which overexpresses Insulin Receptor (H25 cells);
2. Resuspend the cells in fresh DMEM+10% FBS+2mM L-Glutamine, and transfer to 96-well tissue culture plate (Corning, 25806-96) at 20,000 cells/well (100 μL/well). The cells are then incubated for 1 day. Following such incubation, 0.01% serum medium (90/μL) replaces the old media and the cells incubate in 5% CO2 and 37° C. overnight.
1. Coat the ELISA plate (Corning 25805-96) with Anti-IR Antibody at 0.5 μg/well in 100 μL PBS at least 2 hours.
C. Assay Procedures 1. The drugs are tested in serum-free condition. 2. Dilute drug stock (in 100% DMSO) 1:10 with DMEM in 96-well poly-propylene plate, and transfer 10 μL/well of this solution to the cells to achieve final drug dilution 1:100, and final DMSO concentration of 1.0%. Incubate the cells in 5% CO2 at 37° C. for 2 hours.
4. After drug incubation for two hours, transfer 10 μL/well of 1 μM insulin in PBS to the cells (Final concentration=100 nM), and incubate at 5% CO2 at 37° C. for 10 minutes.
5. […]
The IC50 values measured in the insulin receptor phosphorylation assay for the compound of formula VI are depicted in Table 7: […]

Test [2] relates to C6 cells. The test can be described thus: Growth of C6 cells (SRB). To be noted: Rattus norvegicus, 2%. From the text: The assay is the same as the assay set forth in EXAMPLE 10, except that C6 cells (ATCC 107) are used instead of A431 cells.
Compound of formula VI inhibited the growth rate of C6 cells as illustrated in Table 11.

Test [3] concerns SKOV3 cells. Nature of the test: Growth of SKOV3 cells (SRB). To be noted: Homo sapiens, SK-OV-3, 2%. From the text: The assay is the same as the assay set forth in EXAMPLE 10, except that SKOV3 cells (ATCC HTB77) are used instead of A431 cells.
Compound of formula VI inhibited the growth rate of SKOV3 cells as illustrated in Table 10.

Test [4] addresses T2, IGF-1 receptor (Homo sapiens, UniProt P08069).
T2 construct: expressed in transfected cells; host or cells: 3T3-L1/IGF-1R (also written NIH3T3/IGF-1R)
The test can be described thus: IGF-1 receptor phosphorylation assay in cells (ELISA). To be noted: 3T3-L1/IGF-1R cells, IGF-1 stimulation. The procedure:
The following protocol was used to measure phosphotyrosine level on IGF-1 receptor, which indicates IGF-1 receptor tyrosine kinase activity.
a. The cell line used in this assay is 3T3-L1/IGF-1R, a cell line genetically engineered to overexpresses IGF-1 receptor.
2. Resuspend the cells in fresh DMEM+10% FBS+2mM L-Glutamine, and transfer to 96-well tissue culture plate (Corning, 250806-96) at 20,000 cells/well (100 μL/well). Incubate for 1 day then replace medium to serum-free medium (90/μL) and incubate in 5% CO2 and 37° C. overnight.
1. Coat the ELISA plate (Corning 25805-96) with Anti-IGF-1R Antibody at 0.5 μg/well in 100 μL PBS at least 2 hours.
2. Dilute drug stock (in 100% DMSO) 1:10 with DMEM in 96-well poly-propylene plate, and transfer 10 μL/well of this solution to the cells to achieve final drug dilution 1:100, and final DMSO concentration of 1.0%. Incubate the cells in 5% C02 at 37° C. for 2 hours.
4. After drug incubation for two hours, transfer 10 μL/well of 200 nM IGF-1 Ligand m PBS to the cells (Final Conc.=20 nM), and incubate at 5% CO2 at 37° C. for 10 minutes.
5. Remove media and add 100 μL/well HNTG* and shake for 10 minutes. Look at cells under microscope to see if they are adequately lysed.
6. […]
The IC50 values measured in the IGF-1 receptor phosphorylation assay for the compound of formula VI are depicted in Table 4: […]
A general note: ELISA stands for enzyme-linked immunosorbent assay.

T1 sequence (P06213 28-1382, species assumed): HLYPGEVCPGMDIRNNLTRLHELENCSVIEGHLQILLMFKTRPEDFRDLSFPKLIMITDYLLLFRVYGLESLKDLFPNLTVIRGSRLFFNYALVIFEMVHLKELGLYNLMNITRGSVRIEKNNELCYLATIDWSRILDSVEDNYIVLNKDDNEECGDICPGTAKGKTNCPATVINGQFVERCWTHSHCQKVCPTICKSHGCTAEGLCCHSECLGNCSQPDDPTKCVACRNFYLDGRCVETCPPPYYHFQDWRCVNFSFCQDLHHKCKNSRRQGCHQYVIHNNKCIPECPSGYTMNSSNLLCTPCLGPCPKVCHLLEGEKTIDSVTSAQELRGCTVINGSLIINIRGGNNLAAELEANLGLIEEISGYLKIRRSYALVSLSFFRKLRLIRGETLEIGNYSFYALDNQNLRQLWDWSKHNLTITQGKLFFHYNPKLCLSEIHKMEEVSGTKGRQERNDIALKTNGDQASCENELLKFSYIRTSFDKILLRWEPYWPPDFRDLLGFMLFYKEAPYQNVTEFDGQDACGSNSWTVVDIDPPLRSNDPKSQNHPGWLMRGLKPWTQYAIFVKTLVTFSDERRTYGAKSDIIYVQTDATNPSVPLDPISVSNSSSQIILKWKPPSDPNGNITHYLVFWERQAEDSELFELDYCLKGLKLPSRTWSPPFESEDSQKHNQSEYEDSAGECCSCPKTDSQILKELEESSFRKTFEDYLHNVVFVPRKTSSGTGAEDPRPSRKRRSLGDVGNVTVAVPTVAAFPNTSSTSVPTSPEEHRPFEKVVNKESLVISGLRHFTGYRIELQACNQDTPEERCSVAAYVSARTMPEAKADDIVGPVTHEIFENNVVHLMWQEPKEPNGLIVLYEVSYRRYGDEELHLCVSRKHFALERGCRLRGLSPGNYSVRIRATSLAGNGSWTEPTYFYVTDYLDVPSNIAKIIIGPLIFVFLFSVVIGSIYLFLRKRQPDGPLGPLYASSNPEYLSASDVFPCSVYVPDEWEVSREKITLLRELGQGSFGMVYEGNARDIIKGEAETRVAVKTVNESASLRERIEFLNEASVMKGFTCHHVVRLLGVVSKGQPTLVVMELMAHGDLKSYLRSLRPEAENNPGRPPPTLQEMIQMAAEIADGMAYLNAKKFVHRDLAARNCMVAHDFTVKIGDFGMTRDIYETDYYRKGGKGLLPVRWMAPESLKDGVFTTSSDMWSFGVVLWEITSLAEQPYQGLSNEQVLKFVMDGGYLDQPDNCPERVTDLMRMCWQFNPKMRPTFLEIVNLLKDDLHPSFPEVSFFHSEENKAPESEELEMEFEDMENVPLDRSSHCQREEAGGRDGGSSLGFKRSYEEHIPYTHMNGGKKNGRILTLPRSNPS
T2 sequence (P08069 31-1367): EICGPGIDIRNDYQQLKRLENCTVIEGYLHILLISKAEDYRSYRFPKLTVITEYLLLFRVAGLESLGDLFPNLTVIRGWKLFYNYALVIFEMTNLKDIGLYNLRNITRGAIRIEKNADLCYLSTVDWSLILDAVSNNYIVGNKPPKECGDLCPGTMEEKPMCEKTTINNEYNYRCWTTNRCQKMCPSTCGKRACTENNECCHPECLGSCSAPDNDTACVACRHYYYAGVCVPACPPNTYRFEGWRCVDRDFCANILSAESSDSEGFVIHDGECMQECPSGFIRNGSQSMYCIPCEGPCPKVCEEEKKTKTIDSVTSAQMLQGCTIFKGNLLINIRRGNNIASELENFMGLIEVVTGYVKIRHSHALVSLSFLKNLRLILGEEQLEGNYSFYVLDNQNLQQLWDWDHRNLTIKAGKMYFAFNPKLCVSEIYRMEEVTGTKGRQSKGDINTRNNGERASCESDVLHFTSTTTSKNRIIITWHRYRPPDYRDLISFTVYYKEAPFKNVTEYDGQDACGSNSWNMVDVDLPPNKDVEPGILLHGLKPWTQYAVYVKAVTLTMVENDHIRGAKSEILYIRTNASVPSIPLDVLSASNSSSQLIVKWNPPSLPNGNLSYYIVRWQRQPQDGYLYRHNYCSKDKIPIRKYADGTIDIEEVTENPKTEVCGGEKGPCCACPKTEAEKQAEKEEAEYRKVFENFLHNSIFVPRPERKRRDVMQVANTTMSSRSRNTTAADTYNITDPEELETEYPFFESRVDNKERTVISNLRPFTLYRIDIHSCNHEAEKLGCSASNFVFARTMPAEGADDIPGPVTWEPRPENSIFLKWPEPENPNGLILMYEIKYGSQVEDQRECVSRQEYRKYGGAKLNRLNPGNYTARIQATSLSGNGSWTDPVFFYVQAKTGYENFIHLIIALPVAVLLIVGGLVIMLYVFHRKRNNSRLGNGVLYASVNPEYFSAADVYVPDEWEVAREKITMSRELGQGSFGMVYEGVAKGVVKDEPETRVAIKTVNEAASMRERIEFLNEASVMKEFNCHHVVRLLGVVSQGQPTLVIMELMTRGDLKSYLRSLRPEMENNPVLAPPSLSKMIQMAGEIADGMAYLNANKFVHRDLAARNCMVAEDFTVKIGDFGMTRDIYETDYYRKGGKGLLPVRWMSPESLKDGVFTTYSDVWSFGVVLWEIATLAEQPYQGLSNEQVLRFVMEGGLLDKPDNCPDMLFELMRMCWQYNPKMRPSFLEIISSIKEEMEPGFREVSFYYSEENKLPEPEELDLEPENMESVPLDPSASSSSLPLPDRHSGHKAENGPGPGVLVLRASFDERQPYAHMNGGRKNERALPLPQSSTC

`Cc1cc(/C=C2/C(=O)Nc3ccccc32)c(C)c2c1[nH]c1ccccc12` [VI]: the IC50 was found to be 21.9 µM in test [1], 1.55 µM in test [2], 1.08 µM in test [3] and 8.52 µM in test [4].

Broadly, the IC50 is the concentration needed to halve the response being measured.
